Measured values taken from article PMC5218480 (PLoS ONE, 2017).

Test system: MV-4-11 cells
Experiment: Gene expression microarray analysis (Affymetrix PrimeView) and GSEA
Type: cell-based, human
Set-up: RFU PODN (11730768_x_at) / Fold change /veh PODN (11730768_x_at) / RFU LINC00158 (11744669_a_at) / Fold change /veh LINC00158 (11744669_a_at) / RFU DUSP10 (11751237_a_at) / Fold change /veh DUSP10 (11751237_a_at) / RFU ID3 (11757404_x_at) / Fold change /veh ID3 (11757404_x_at) / RFU PLEKHG5 (11737974_s_at) / Fold change /veh PLEKHG5 (11737974_s_at) / RFU LRRC4B (11730491_at) / Fold change /veh LRRC4B (11730491_at) / RFU GIMAP4 (11747438_a_at) / Fold change /veh GIMAP4 (11747438_a_at) / RFU KRT8 (11758183_x_at) / Fold change /veh KRT8 (11758183_x_at) / RFU CNN1 (11734310_a_at) / Fold change /veh CNN1 (11734310_a_at) / RFU VPS37D (11726825_at) / Fold change /veh VPS37D (11726825_at) / RFU C10orf10 (11716522_x_at) / Fold change /veh C10orf10 (11716522_x_at) / RFU KIR2DL2 /// KIR2DL4 /// KIR2DL5A /// KIR2DL5B /// KIR2DS1 /// KIR2DS2 /// KIR2DS3 /// KIR2DS4 /// KIR3DL3 /// KIR3DL3 /// KIR3DS1 (11738374_at) / Fold change /veh KIR2DL2 /// KIR2DL4 /// KIR2DL5A /// KIR2DL5B /// KIR2DS1 /// KIR2DS2 /// KIR2DS3 /// KIR2DS4 /// KIR3DL3 /// KIR3DL3 /// KIR3DS1 (11738374_at) / RFU C1QL1 (11718748_at) / Fold change /veh C1QL1 (11718748_at) / RFU TMPRSS4 (11747572_a_at) / Fold change /veh TMPRSS4 (11747572_a_at) / RFU HAMP (11756126_x_at) / Fold change /veh HAMP (11756126_x_at) / RFU RNFT2 (11725882_a_at) / Fold change /veh RNFT2 (11725882_a_at) / RFU NR4A2 (11747474_a_at) / Fold change /veh NR4A2 (11747474_a_at) / RFU ABCC12 (11746883_a_at) / Fold change /veh ABCC12 (11746883_a_at) / RFU TMEM136 (11760407_x_at) / Fold change /veh TMEM136 (11760407_x_at) / RFU CLDN22 /// WWC2 (11732394_at) / Fold change /veh CLDN22 /// WWC2 (11732394_at) / RFU HLA-DPB1 (11760878_x_at) / Fold change /veh HLA-DPB1 (11760878_x_at) / RFU SPINT1 (11716480_a_at) / Fold change /veh SPINT1 (11716480_a_at) / RFU GAP43 (11754022_s_at) / Fold change /veh GAP43 (11754022_s_at) / RFU A4GNT (11735810_at) / Fold change /veh A4GNT (11735810_at) / RFU PRB3 (11715151_x_at) / Fold change /veh PRB3 (11715151_x_at) / RFU TUBB4B (11761932_at) / Fold change /veh TUBB4B (11761932_at) / RFU CAPN14 (11732068_a_at) / Fold change /veh CAPN14 (11732068_a_at) / RFU TMCC2 (11721928_a_at) / Fold change /veh TMCC2 (11721928_a_at) / RFU IRGQ (11745062_a_at) / Fold change /veh IRGQ (11745062_a_at) / RFU FAM174B (11720279_a_at) / Fold change /veh FAM174B (11720279_a_at) / RFU TMPRSS4 (11748680_a_at) / Fold change /veh TMPRSS4 (11748680_a_at) / RFU FAM212B (11763350_a_at) / Fold change /veh FAM212B (11763350_a_at) / RFU PLEKHG5 (11743358_a_at) / Fold change /veh PLEKHG5 (11743358_a_at) / RFU ZSCAN30 (11745921_a_at) / Fold change /veh ZSCAN30 (11745921_a_at) / RFU CMKLR1 (11741424_a_at) / Fold change /veh CMKLR1 (11741424_a_at) / RFU LOC101060620 /// MAPK8IP1 (11723275_at) / Fold change /veh LOC101060620 /// MAPK8IP1 (11723275_at) / RFU SPTSSB (11747773_x_at) / Fold change /veh SPTSSB (11747773_x_at) / RFU PRSS12 (11739890_at) / Fold change /veh PRSS12 (11739890_at) / RFU BIN1 (11741810_x_at) / Fold change /veh BIN1 (11741810_x_at) / RFU WNT11 (11732464_a_at) / Fold change /veh WNT11 (11732464_a_at) / RFU C10orf10 (11716521_a_at) / Fold change /veh C10orf10 (11716521_a_at) / RFU C5orf56 (11738089_at) / Fold change /veh C5orf56 (11738089_at) / RFU CYB561 (11721691_x_at) / Fold change /veh CYB561 (11721691_x_at) / RFU ANKRD19P (11752326_a_at) / Fold change /veh ANKRD19P (11752326_a_at) / RFU OR2T12 /// OR2T33 /// OR2T8 (11738714_s_at) / Fold change /veh OR2T12 /// OR2T33 /// OR2T8 (11738714_s_at) / RFU VCAN (11748164_a_at) / Fold change /veh VCAN (11748164_a_at) / RFU JSRP1 (11732532_at) / Fold change /veh JSRP1 (11732532_at) / RFU KRTAP10-11 (11738290_x_at) / Fold change /veh KRTAP10-11 (11738290_x_at) / RFU MYO3A (11730013_a_at) / Fold change /veh MYO3A (11730013_a_at) / RFU EBF3 (11725865_a_at) / Fold change /veh EBF3 (11725865_a_at) / RFU CAMK2N1 (11719241_x_at) / Fold change /veh CAMK2N1 (11719241_x_at) / RFU C5orf56 (11738088_a_at) / Fold change /veh C5orf56 (11738088_a_at) / RFU OLFML3 (11715873_a_at) / Fold change /veh OLFML3 (11715873_a_at) / RFU LOC100653217 /// NTM (11731650_a_at) / Fold change /veh LOC100653217 /// NTM (11731650_a_at) / RFU MAPK11 (11762145_a_at) / Fold change /veh MAPK11 (11762145_a_at) / RFU FIZ1 (11724087_x_at) / Fold change /veh FIZ1 (11724087_x_at) / RFU OASL (11726364_x_at) / Fold change /veh OASL (11726364_x_at) / RFU SOX15 (11748057_x_at) / Fold change /veh SOX15 (11748057_x_at) / RFU CD79A (11719716_a_at) / Fold change /veh CD79A (11719716_a_at) / RFU HIST1H1D (11736915_at) / Fold change /veh HIST1H1D (11736915_at) / RFU CASKIN2 (11723855_a_at) / Fold change /veh CASKIN2 (11723855_a_at) / RFU LOC730098 (11760151_x_at) / Fold change /veh LOC730098 (11760151_x_at) / RFU OR4N2 (11742367_at) / Fold change /veh OR4N2 (11742367_at) / RFU PRRT2 (11749266_a_at) / Fold change /veh PRRT2 (11749266_a_at) / RFU SNX32 (11753110_a_at) / Fold change /veh SNX32 (11753110_a_at) / RFU CDHR5 (11726645_a_at) / Fold change /veh CDHR5 (11726645_a_at) / RFU RCAN1 (11760418_a_at) / Fold change /veh RCAN1 (11760418_a_at) / RFU FAM167A (11723789_a_at) / Fold change /veh FAM167A (11723789_a_at) / RFU FAM26E (11764081_at) / Fold change /veh FAM26E (11764081_at) / RFU ISYNA1 (11749810_s_at) / Fold change /veh ISYNA1 (11749810_s_at) / RFU ACY1 (11761880_at) / Fold change /veh ACY1 (11761880_at) / RFU 11764098_at / Fold change /veh 11764098_at / RFU SAMD14 (11745864_x_at) / Fold change /veh SAMD14 (11745864_x_at) / RFU NPB (11741838_a_at) / Fold change /veh NPB (11741838_a_at) / RFU TMPRSS6 (11731388_a_at) / Fold change /veh TMPRSS6 (11731388_a_at) / RFU KRTAP10-2 (11738614_at) / Fold change /veh KRTAP10-2 (11738614_at) / RFU ARHGAP8 /// PRR5-ARHGAP8 (11727945_x_at) / Fold change /veh ARHGAP8 /// PRR5-ARHGAP8 (11727945_x_at) / RFU KRTAP5-7 /// NADSYN1 (11734609_at) / Fold change /veh KRTAP5-7 /// NADSYN1 (11734609_at) / RFU RASL12 (11751679_a_at) / Fold change /veh RASL12 (11751679_a_at) / RFU CDKN2B (11736163_a_at) / Fold change /veh CDKN2B (11736163_a_at) / RFU PRF1 (11729649_at) / Fold change /veh PRF1 (11729649_at) / RFU, ZNF638 /// ZNF638-IT1 / Fold change vs veh, ZNF638 /// ZNF638-IT1 / RFU, PANK3 / Fold change vs veh, PANK3 / RFU, SH3YL1 / Fold change vs veh, SH3YL1 / RFU, ZEB2 / Fold change vs veh, ZEB2 / RFU, NRIP1 / Fold change vs veh, NRIP1 / RFU, PTTG1IP / Fold change vs veh, PTTG1IP / RFU, CAPN2 / Fold change vs veh, CAPN2 / RFU, MED14 / Fold change vs veh, MED14 / RFU, SNORA58 / Fold change vs veh, SNORA58 / RFU, C1orf63 / Fold change vs veh, C1orf63 / RFU, LRRFIP1 / Fold change vs veh, LRRFIP1 / RFU, NDUFAF7 / Fold change vs veh, NDUFAF7 / RFU, SLC12A2 / Fold change vs veh, SLC12A2 / RFU, IBTK / Fold change vs veh, IBTK / RFU, ESF1 / Fold change vs veh, ESF1 / Fold change vs veh, TMEM50B / RFU, TAOK1 / Fold change vs veh, TAOK1 / RFU, ACBD3 / Fold change vs veh, ACBD3 / RFU, TMA16 / Fold change vs veh, TMA16 / RFU, RWDD3 / Fold change vs veh, RWDD3 / RFU, BCAT1 / Fold change vs veh, BCAT1 / RFU, EDEM3 / Fold change vs veh, EDEM3 / RFU, TMEM33 / Fold change vs veh, TMEM33 / RFU, WDR75 / Fold change vs veh, WDR75 / RFU, AHCTF1 / Fold change vs veh, AHCTF1 / RFU, TFRC / Fold change vs veh, TFRC / RFU, ZDHHC17 / Fold change vs veh, ZDHHC17 / RFU, NOM1 / Fold change vs veh, NOM1 / RFU, ARL8B / Fold change vs veh, ARL8B / RFU, ZBTB11 / Fold change vs veh, ZBTB11 / RFU, TAMM41 / Fold change vs veh, TAMM41 / RFU, KIAA1704 /// LOC100996395 / Fold change vs veh, KIAA1704 /// LOC100996395 / RFU, ING1 / Fold change vs veh, ING1 / RFU, TRMT61B / Fold change vs veh, TRMT61B / RFU, FUBP3 / Fold change vs veh, FUBP3 / RFU, TP53 / Fold change vs veh, TP53 / RFU, TNKS2 / Fold change vs veh, TNKS2 / RFU, ZFP14 / Fold change vs veh, ZFP14 / RFU, ACTR2 / Fold change vs veh, ACTR2 / RFU, PPP3R1 / Fold change vs veh, PPP3R1 / RFU, PIK3R1 / Fold change vs veh, PIK3R1 / RFU, HNRNPA1 / Fold change vs veh, HNRNPA1 / RFU, RNF170 / Fold change vs veh, RNF170 / RFU, ZNF28 / Fold change vs veh, ZNF28 / RFU, RNGTT / Fold change vs veh, RNGTT / RFU, OGT / Fold change vs veh, OGT / RFU, BRD1 / Fold change vs veh, BRD1 / RFU, MARS / Fold change vs veh, MARS / RFU, ZNF655 / Fold change vs veh, ZNF655 / RFU, FAHD1 / Fold change vs veh, FAHD1 / RFU, BDP1 / Fold change vs veh, BDP1 / RFU, LRRCC1 / Fold change vs veh, LRRCC1 / RFU, ARID1A / Fold change vs veh, ARID1A / RFU, ZNF146 / Fold change vs veh, ZNF146 / RFU, ZNF330 / Fold change vs veh, ZNF330 / RFU, GPN3 / Fold change vs veh, GPN3 / RFU, C9orf123 / Fold change vs veh, C9orf123 / RFU, N4BP2L2 / Fold change vs veh, N4BP2L2 / RFU, ARFIP1 / Fold change vs veh, ARFIP1 / RFU, FAM179B / Fold change vs veh, FAM179B / RFU, BCL10 / Fold change vs veh, BCL10 / RFU, UHRF1BP1L / Fold change vs veh, UHRF1BP1L / RFU, BET1 / Fold change vs veh, BET1 / RFU, CNOT2 / Fold change vs veh, CNOT2 / RFU, ZNF268 / Fold change vs veh, ZNF268 / Fold change vs veh, ZNF507 / RFU, DGCR2 / Fold change vs veh, DGCR2 / RFU, WDSUB1 / Fold change vs veh, WDSUB1 / Fold change vs veh, HSP90B1 /// MIR3652 / RFU, ADSS / Fold change vs veh, ADSS / RFU, GK / Fold change vs veh, GK / RFU, ZNF148 / Fold change vs veh, ZNF148 / RFU, TAF9 / Fold change vs veh, TAF9 / RFU, SLC1A5 / Fold change vs veh, SLC1A5 / RFU, SLMO2 / Fold change vs veh, SLMO2 / RFU, ABCC4 / Fold change vs veh, ABCC4 / RFU, LOC101060439 /// RAP1B / Fold change vs veh, LOC101060439 /// RAP1B / RFU, RFX7 / Fold change vs veh, RFX7 / RFU, GTPBP10 / Fold change vs veh, GTPBP10 / RFU, CNEP1R1 / Fold change vs veh, CNEP1R1 / RFU, BIVM-ERCC5 /// ERCC5 / Fold change vs veh, BIVM-ERCC5 /// ERCC5 / RFU, ILF3 / Fold change vs veh, ILF3 / RFU 11762660_at / Fold change /veh 11762660_at / RFU VCAN (11757783_s_at) / Fold change /veh VCAN (11757783_s_at) / RFU DDX43 (11728927_at) / Fold change /veh DDX43 (11728927_at) / RFU KRT8 (11758188_x_at) / Fold change /veh KRT8 (11758188_x_at) / RFU NKD1 (11759106_at) / Fold change /veh NKD1 (11759106_at) / RFU SRD5A1 (11742802_a_at) / Fold change /veh SRD5A1 (11742802_a_at) / RFU TPSAB1 /// TPSB2 (11721975_s_at) / Fold change /veh TPSAB1 /// TPSB2 (11721975_s_at) / RFU GSTM3 (11746129_a_at) / Fold change /veh GSTM3 (11746129_a_at) / RFU IL23R (11737362_x_at) / Fold change /veh IL23R (11737362_x_at) / RFU TMEM51 (11727254_a_at) / Fold change /veh TMEM51 (11727254_a_at) / RFU PIWIL2 (11732686_x_at) / Fold change /veh PIWIL2 (11732686_x_at) / RFU ORM1 (11744905_x_at) / Fold change /veh ORM1 (11744905_x_at) / RFU CCDC152 (11743942_at) / Fold change /veh CCDC152 (11743942_at) / RFU ECM1 (11717891_a_at) / Fold change /veh ECM1 (11717891_a_at) / RFU IL23R (11748794_a_at) / Fold change /veh IL23R (11748794_a_at) / RFU TNFAIP8L3 (11732012_x_at) / Fold change /veh TNFAIP8L3 (11732012_x_at) / RFU MBOAT4 (11741988_at) / Fold change /veh MBOAT4 (11741988_at) / RFU 11764193_at / Fold change /veh 11764193_at / RFU TMEM53 (11763286_at) / Fold change /veh TMEM53 (11763286_at) / RFU MAGEB2 (11727129_at) / Fold change /veh MAGEB2 (11727129_at) / RFU TMEM200A (11744735_a_at) / Fold change /veh TMEM200A (11744735_a_at) / RFU CCDC152 (11751479_a_at) / Fold change /veh CCDC152 (11751479_a_at) / RFU FAM211A (11726209_a_at) / Fold change /veh FAM211A (11726209_a_at) / RFU RGS16 (11746705_a_at) / Fold change /veh RGS16 (11746705_a_at) / RFU VCAN (11755009_s_at) / Fold change /veh VCAN (11755009_s_at) / RFU RHOB (11743442_s_at) / Fold change /veh RHOB (11743442_s_at) / RFU RGS16 (11720943_a_at) / Fold change /veh RGS16 (11720943_a_at) / RFU RGS16 (11720944_at) / Fold change /veh RGS16 (11720944_at) / RFU, VPS4B / Fold change vs veh, VPS4B / RFU, CREB1 / Fold change vs veh, CREB1 / RFU, DNAJC13 / Fold change vs veh, DNAJC13 / RFU, GNAQ / Fold change vs veh, GNAQ / RFU, CDK5R1 / Fold change vs veh, CDK5R1 / RFU, ZRANB3 / Fold change vs veh, ZRANB3 / RFU, CUL4A / Fold change vs veh, CUL4A / RFU, CCNY / Fold change vs veh, CCNY / RFU, UFL1 / Fold change vs veh, UFL1 / RFU, COG3 / Fold change vs veh, COG3 / RFU, DIAPH2 / Fold change vs veh, DIAPH2 / RFU, SKA2 / Fold change vs veh, SKA2 / RFU, AFF3 / Fold change vs veh, AFF3 / RFU, LMF1 / Fold change vs veh, LMF1 / RFU, IPO11 / Fold change vs veh, IPO11 / RFU, DFFB / Fold change vs veh, DFFB / RFU, FOXP1 / Fold change vs veh, FOXP1 / RFU, CARD8 / Fold change vs veh, CARD8 / RFU, STRN3 / Fold change vs veh, STRN3 / RFU, ADK / Fold change vs veh, ADK / RFU, RASSF2 / Fold change vs veh, RASSF2 / RFU, WIPF1 / Fold change vs veh, WIPF1 / RFU, LARP1B / Fold change vs veh, LARP1B / RFU, RASA1 / Fold change vs veh, RASA1 / RFU, RB1 / Fold change vs veh, RB1 / RFU, PPFIA1 / Fold change vs veh, PPFIA1 / RFU, MAT2A / Fold change vs veh, MAT2A / RFU, CCT5 / Fold change vs veh, CCT5 / RFU, WDR92 / Fold change vs veh, WDR92 / RFU, CUX1 / Fold change vs veh, CUX1 / RFU, TTC7A / Fold change vs veh, TTC7A / RFU, TMEM135 / Fold change vs veh, TMEM135 / RFU, DEPTOR / Fold change vs veh, DEPTOR / RFU, CPM / Fold change vs veh, CPM / RFU, DNAJB6 / Fold change vs veh, DNAJB6 / RFU, CACNA2D3 / Fold change vs veh, CACNA2D3 / RFU, DTX4 / Fold change vs veh, DTX4 / RFU, TFCP2 / Fold change vs veh, TFCP2 / RFU, GMCL1 /// GMCL1P1 / Fold change vs veh, GMCL1 /// GMCL1P1 / RFU, AEBP2 / Fold change vs veh, AEBP2 / RFU, SNHG1 /// SNORD22 /// SNORD25 /// SNORD26 /// SNORD27 /// SNORD28 /// SNORD29 /// SNORD31 / Fold change vs veh, SNHG1 /// SNORD22 /// SNORD25 /// SNORD26 /// SNORD27 /// SNORD28 /// SNORD29 /// SNORD31 / Fold change (Aza/veh), C12orf56 (ProbeSet 11735607_a_at) / Fold change (ACY-1035/veh), C12orf56 (ProbeSet 11735607_a_at) / Fold change (Aza/veh), FGFR1OP (ProbeSet 11751329_s_at) / Fold change (ACY-1035/veh), FGFR1OP (ProbeSet 11751329_s_at) / Fold change (Aza/veh), VPS36 (ProbeSet 11739960_a_at) / Fold change (ACY-1035/veh), VPS36 (ProbeSet 11739960_a_at) / RFU SYPL1 (11715823_x_at) / Fold change /veh SYPL1 (11715823_x_at) / RFU IGFBP7 (11715501_s_at) / Fold change /veh IGFBP7 (11715501_s_at) / RFU REEP3 (11722064_at) / Fold change /veh REEP3 (11722064_at) / RFU IGLL1 (11728026_x_at) / Fold change /veh IGLL1 (11728026_x_at): dose or concentration left out as unconfirmed
Conditions: MV-4-11 cells, 48 hours

With `Nc1ncn([C@@H]2O[C@H](CO)[C@@H](O)[C@H]2O)c(=O)n1` [azacitidine] the “Fold change /veh IRGQ (11745062_a_at)” value was 1.17.
